Measurements from the NIST ThermoML archive (doi:10.1021/je050414d).
Values joined by “and” are separate entries in the source; they are usually repeats but may differ in a detail not shown here. Equal entries are not always repeated. ± gives the expanded uncertainty stated by the source.

What was measured:
[1] = 101 kPa, Liquid; for viscosity: Capillary tube (Ostwald / Ubbelohde) method
[2] = xn = mol fraction of the nth substance listed; conditions: 101 kPa, Liquid, x2 = 0; for viscosity: Capillary tube (Ostwald / Ubbelohde) method

SMILES: CCOC(=O)OCC [diethyl carbonate]
- mass density ([1]; 293.15 K): 975 ± 1 kg/m3
- viscosity ([1]; 293.15 K): 0.801 ± 0.008 mPa·s and 0.8 ± 0.008 mPa·s
- mass density ([1]; 298.15 K): 968.97 ± 1.1 kg/m3
- viscosity ([1]; 298.15 K): 0.746 ± 0.008 mPa·s
- mass density ([1]; 303.15 K): 962.39 ± 1.1 kg/m3
- viscosity ([1]; 303.15 K): 0.695 ± 0.008 mPa·s
- mass density ([1]; 313.15 K): 952.32 ± 1.2 kg/m3
- viscosity ([1]; 313.15 K): 0.61 ± 0.007 mPa·s
- mass density ([1]; 323.15 K): 939.78 ± 1.3 kg/m3
- viscosity ([1]; 323.15 K): 0.541 ± 0.007 mPa·s
- mass density ([1]; 333.15 K): 928.69 ± 1.4 kg/m3
- viscosity ([1]; 333.15 K): 0.483 ± 0.007 mPa·s
- mass density ([1]; 343.15 K): 916.33 ± 1.6 kg/m3
- viscosity ([1]; 343.15 K): 0.435 ± 0.007 mPa·s
- mass density ([1]; 353.15 K): 905.02 ± 1.7 kg/m3
- viscosity ([1]; 353.15 K): 0.393 ± 0.007 mPa·s
- mass density ([1]; 363.15 K): 893.71 ± 1.8 kg/m3
- viscosity ([1]; 363.15 K): 0.358 ± 0.007 mPa·s

SMILES: CO [methanol]
- mass density ([1]; 293.15 K): 791.54 ± 2.7 kg/m3
- viscosity ([1]; 293.15 K): 0.582 ± 0.007 mPa·s
- mass density ([1]; 298.15 K): 786.83 ± 2.8 kg/m3
- viscosity ([1]; 298.15 K): 0.55 ± 0.007 mPa·s
- mass density ([1]; 303.15 K): 782.12 ± 2.8 kg/m3
- viscosity ([1]; 303.15 K): 0.512 ± 0.007 mPa·s
- mass density ([1]; 313.15 K): 772.6 ± 2.9 kg/m3
- viscosity ([1]; 313.15 K): 0.448 ± 0.007 mPa·s
- mass density ([1]; 323.15 K): 762.97 ± 3 kg/m3
- viscosity ([1]; 323.15 K): 0.395 ± 0.007 mPa·s
- mass density ([1]; 333.15 K): 749.69 ± 3.1 kg/m3
- viscosity ([1]; 333.15 K): 0.351 ± 0.007 mPa·s

SMILES: CO [methanol] + CCOC(=O)OCC
- viscosity ([2]; 293.15 K): 0.582 ± 0.007 mPa·s
- mass density ([2]; 293.15 K): 791.54 ± 2.7 kg/m3
- viscosity ([2]; 298.15 K): 0.55 ± 0.007 mPa·s
- mass density ([2]; 298.15 K): 786.83 ± 2.8 kg/m3
- viscosity ([2]; 303.15 K): 0.512 ± 0.007 mPa·s
- mass density ([2]; 303.15 K): 782.12 ± 2.8 kg/m3
- viscosity ([2]; 313.15 K): 0.448 ± 0.007 mPa·s
- mass density ([2]; 313.15 K): 772.6 ± 2.9 kg/m3
- viscosity ([2]; 323.15 K): 0.395 ± 0.007 mPa·s
- mass density ([2]; 323.15 K): 762.97 ± 3 kg/m3
- viscosity ([2]; 333.15 K): 0.351 ± 0.007 mPa·s
- mass density ([2]; 333.15 K): 749.69 ± 3.1 kg/m3

SMILES: CC(C)O [propan-2-ol]
- mass density ([1]; 293.15 K): 785.28 ± 2.8 kg/m3
- viscosity ([1]; 293.15 K): 2.382 ± 0.016 mPa·s
- mass density ([1]; 298.15 K): 780.69 ± 2.8 kg/m3
- viscosity ([1]; 298.15 K): 2.069 ± 0.014 mPa·s
- mass density ([1]; 303.15 K): 776.15 ± 2.9 kg/m3
- viscosity ([1]; 303.15 K): 1.743 ± 0.013 mPa·s
- mass density ([1]; 313.15 K): 766.34 ± 3 kg/m3
- viscosity ([1]; 313.15 K): 1.288 ± 0.01 mPa·s
- mass density ([1]; 323.15 K): 755.66 ± 3 kg/m3
- viscosity ([1]; 323.15 K): 1.002 ± 0.009 mPa·s
- mass density ([1]; 333.15 K): 745.51 ± 3.1 kg/m3
- viscosity ([1]; 333.15 K): 0.789 ± 0.008 mPa·s
- mass density ([1]; 343.15 K): 735.02 ± 3.2 kg/m3
- viscosity ([1]; 343.15 K): 0.626 ± 0.007 mPa·s

SMILES: CC(C)O [propan-2-ol] + CCOC(=O)OCC
- viscosity ([2]; 293.15 K): 2.382 ± 0.016 mPa·s
- mass density ([2]; 293.15 K): 785.28 ± 2.8 kg/m3
- viscosity ([2]; 298.15 K): 2.069 ± 0.014 mPa·s
- mass density ([2]; 298.15 K): 780.69 ± 2.8 kg/m3
- viscosity ([2]; 303.15 K): 1.743 ± 0.013 mPa·s
- mass density ([2]; 303.15 K): 776.15 ± 2.9 kg/m3
- viscosity ([2]; 313.15 K): 1.288 ± 0.01 mPa·s
- mass density ([2]; 313.15 K): 766.34 ± 3 kg/m3
- viscosity ([2]; 323.15 K): 1.002 ± 0.009 mPa·s
- mass density ([2]; 323.15 K): 755.66 ± 3 kg/m3
- viscosity ([2]; 333.15 K): 0.789 ± 0.008 mPa·s
- mass density ([2]; 333.15 K): 745.51 ± 3.1 kg/m3
- viscosity ([2]; 343.15 K): 0.626 ± 0.007 mPa·s
- mass density ([2]; 343.15 K): 735.02 ± 3.2 kg/m3

SMILES: Cc1ccccc1 [toluene]
- mass density ([1]; 298.15 K): 862.01 ± 2 kg/m3
- viscosity ([1]; 298.15 K): 0.554 ± 0.007 mPa·s
- mass density ([1]; 303.15 K): 858.32 ± 2.1 kg/m3
- viscosity ([1]; 303.15 K): 0.525 ± 0.007 mPa·s
- mass density ([1]; 313.15 K): 848.92 ± 2.2 kg/m3
- viscosity ([1]; 313.15 K): 0.47 ± 0.007 mPa·s
- mass density ([1]; 323.15 K): 838.75 ± 2.3 kg/m3
- viscosity ([1]; 323.15 K): 0.423 ± 0.007 mPa·s
- mass density ([1]; 333.15 K): 829.93 ± 2.3 kg/m3
- viscosity ([1]; 333.15 K): 0.385 ± 0.007 mPa·s
- mass density ([1]; 343.15 K): 820.3 ± 2.4 kg/m3
- viscosity ([1]; 343.15 K): 0.35 ± 0.007 mPa·s
- mass density ([1]; 353.15 K): 810.54 ± 2.5 kg/m3
- viscosity ([1]; 353.15 K): 0.31 ± 0.006 mPa·s
- mass density ([1]; 363.15 K): 797.68 ± 2.6 kg/m3
- viscosity ([1]; 363.15 K): 0.286 ± 0.006 mPa·s

SMILES: Cc1ccccc1 [toluene] + CCOC(=O)OCC
- viscosity ([2]; 298.15 K): 0.554 ± 0.007 mPa·s
- mass density ([2]; 298.15 K): 862.01 ± 2 kg/m3
- viscosity ([2]; 303.15 K): 0.525 ± 0.007 mPa·s
- mass density ([2]; 303.15 K): 858.32 ± 2.1 kg/m3
- viscosity ([2]; 313.15 K): 0.47 ± 0.007 mPa·s
- mass density ([2]; 313.15 K): 848.92 ± 2.2 kg/m3
- viscosity ([2]; 323.15 K): 0.423 ± 0.007 mPa·s
- mass density ([2]; 323.15 K): 838.75 ± 2.3 kg/m3
- viscosity ([2]; 333.15 K): 0.385 ± 0.007 mPa·s
- mass density ([2]; 333.15 K): 829.93 ± 2.3 kg/m3
- viscosity ([2]; 343.15 K): 0.35 ± 0.007 mPa·s
- mass density ([2]; 343.15 K): 820.3 ± 2.4 kg/m3
- viscosity ([2]; 353.15 K): 0.31 ± 0.006 mPa·s
- mass density ([2]; 353.15 K): 810.54 ± 2.5 kg/m3
- viscosity ([2]; 363.15 K): 0.286 ± 0.006 mPa·s
- mass density ([2]; 363.15 K): 797.68 ± 2.6 kg/m3
